Tests used:
Assay in all cases: relative viability (nuclei count vs DMSO), 5 days (fraction); higher = more cells survive
Afatinib + AZD7762 = compound: CN(C)C/C=C/C(=O)Nc1cc2c(Nc3ccc(F)c(Cl)c3)ncnc2cc1O[C@H]1CCOC1 [Afatinib] + NC(=O)Nc1cc(-c2cccc(F)c2)sc1C(=O)N[C@H]1CCCNC1 [AZD7762] (partner 0.2 µM)
Method in brief: (§1)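 Lung cancer cell lines in 1536-well plates were dosed by pin tool the day after seeding, either with one drug alone or with a fixed anchor-drug dose plus five library-drug doses (not always all listed) in √10 steps. After 5 days, cells were fixed and their nuclei stained in one step (final 0.05% Triton X-100, 1% formaldehyde, 1 ug/ml Hoechst), then counted on 4× images. Relative viability is the nuclei count in treated wells divided by that in vehicle wells. Values are medians of duplicate plates.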

Afatinib + Bortezomib = compound: CN(C)C/C=C/C(=O)Nc1cc2c(Nc3ccc(F)c(Cl)c3)ncnc2cc1O[C@H]1CCOC1 [Afatinib] + CC(C)C[C@H](NC(=O)[C@H](Cc1ccccc1)NC(=O)c1cnccn1)B(O)O [Bortezomib] (partner 0.002 µM)
Method in brief: as §1

Afatinib + Lapatinib = compound: CN(C)C/C=C/C(=O)Nc1cc2c(Nc3ccc(F)c(Cl)c3)ncnc2cc1O[C@H]1CCOC1 [Afatinib] + CS(=O)(=O)CCNCc1ccc(-c2ccc3ncnc(Nc4ccc(OCc5cccc(F)c5)c(Cl)c4)c3c2)o1 [Lapatinib] (partner 2 µM)
Method in brief: as §1

Afatinib + Decitabine = compound: CN(C)C/C=C/C(=O)Nc1cc2c(Nc3ccc(F)c(Cl)c3)ncnc2cc1O[C@H]1CCOC1 [Afatinib] + Nc1ncn([C@H]2C[C@H](O)[C@@H](CO)O2)c(=O)n1 [Decitabine] (partner 2 µM)
Method in brief: as §1

| Cell Line | relative viability (Afatinib + AZD7762; first compound 0.005 µM) | relative viability (Afatinib + AZD7762; first compound 0.01581 µM) | relative viability (Afatinib + AZD7762; first compound 0.05 µM) | relative viability (Afatinib + AZD7762; first compound 0.1581 µM) | relative viability (Afatinib + AZD7762; first compound 0.5 µM) | relative viability (Afatinib + Bortezomib; first compound 0.005 µM) | relative viability (Afatinib + Bortezomib; first compound 0.01581 µM) | relative viability (Afatinib + Bortezomib; first compound 0.05 µM) | relative viability (Afatinib + Bortezomib; first compound 0.1581 µM) | relative viability (Afatinib + Bortezomib; first compound 0.5 µM) | relative viability (Afatinib + Lapatinib; first compound 0.005 µM) | relative viability (Afatinib + Lapatinib; first compound 0.01581 µM) | relative viability (Afatinib + Lapatinib; first compound 0.05 µM) | relative viability (Afatinib + Lapatinib; first compound 0.1581 µM) | relative viability (Afatinib + Lapatinib; first compound 0.5 µM) | relative viability (Afatinib + Decitabine; first compound 0.005 µM) | relative viability (Afatinib + Decitabine; first compound 0.01581 µM) | relative viability (Afatinib + Decitabine; first compound 0.05 µM) | relative viability (Afatinib + Decitabine; first compound 0.1581 µM) | relative viability (Afatinib + Decitabine; first compound 0.5 µM) |
| --- | --- | --- | --- | --- | --- | --- | --- | --- | --- | --- | --- | --- | --- | --- | --- | --- | --- | --- | --- | --- |
| NCI-H3122 | 1.07 | 0.985 | 0.991 | 0.883 | 1.05 | 1.05 | 1.02 | 1.06 | 0.967 | 1.04 | 1.03 | 1.02 | 1.05 | 0.992 | 1.04 | 0.38 | 0.439 | 0.424 | 0.433 | 0.418 |
| PC-3 [JPC-3] | 0.52 | 0.413 | 0.307 | 0.353 | 0.422 | 0.516 | 0.351 | 0.315 | 0.406 | 0.303 | 0.445 | 0.425 | 0.428 | 0.472 | 0.416 | 0.564 | 0.52 | 0.553 | 0.449 | 0.492 |
| PC-14 | 0.235 | 0.157 | 0.139 | 0.166 | 0.14 | 0.303 | 0.256 | 0.268 | 0.222 | 0.249 | 0.295 | 0.222 | 0.258 | 0.301 | 0.288 | 0.14 | 0.17 | 0.137 | 0.171 | 0.218 |
| RERF-LC-KJ | 1.01 | 0.827 | 0.865 | 0.84 | 0.778 | 1.01 | 1.16 | 0.901 | 0.818 | 0.793 | 0.83 | 0.919 | 0.849 | 0.834 | 0.83 | 0.646 | 0.613 | 0.673 | 0.501 | 0.635 |

Reference: the supplement of paper PMC10307832
